Results on 32 compounds are retold here after US20260001889A1, “COMPOSITIONS USEFUL FOR MODULATING SPLICING” (Skyhawk Therapeutics, Inc., priority 2022, published 2026).

The test system of the assay is ATXN3-HiBiT protein. Briefly: ATXN3 Total Protein Assay (Kelly-ATXN3-HiBiT luminescence). The class given is cell-based. The note with it: Kelly-ATXN3-HiBiT cells, 48 h after addition of compound. The text has this: Example 36: ATXN3 Total Protein Assay
To monitor ATXN3 protein levels by luminescence, a Kelly-ATXN3-HiBiT cell line with homozygous knock-in of HiBiT at the C-terminus of the endogenous ATXN3 gene was used (knock-in of the HiBiT-tag coding sequence SEQ ID NO. 14: 5′[…]3′ into exon 11 of ATXN3-position 1114 of ATXN3 RefSeq NM_004993.6). Manipulations of the Kelly-ATXN3-HiBiT cell line that result in downregulation of the ATXN3-HiBiT protein (through modulation of ATXN3-HiBiT pre-mRNA splicing) can be followed by monitoring the luminescence signal of the HiBiT tag using the Nano Glo HiBiT Lytic Detection System (Promega, #N3050). Kelly-ATXN3-HiBiT cells were maintained in RPMI 1640 w/Glutamax (Gibco, #61870010), 10% FBS (Sigma Aldrich, #F8687), 1% Penicillin/Streptomycin (Gibco, #15140-122) at 37° C., 5% CO2. To assess HiBiT-luminescence signal upon compound treatment, 2000 Kelly-ATXN3-HiBiT cells were seeded per well in 384 plate format. Compounds were added 24 h after seeding. ATXN3-HiBiT-luminescence signal was read out 48 h after addition of the compound using the Nano Glo HiBiT Lytic Detection System (Promega, #N3050) according to the manufacturer's instructions. To control for cell viability, an identically prepared sister plate was read out with the CellTiter-Glo® 2.0 Assay (Promega, #G9243) according to the manufacturer's instructions. Fold changes of ATXN3-HiBiT-luminescence and of CellTiter-Glo viability signals were calculated relative to a DMSO control condition.
A general note: The HiBiT peptide binds its large partner to form an active luciferase.
The compound `COc1ccccc1CNc1cc(Cl)nc2c(Br)c(C[C@H](C)N)oc12` [Compound 337, 2-[(S)-2-aminopropyl]-3-bromo-5-chloro-7-{[(o-methoxyphenyl)methyl]amino}-1-oxa-4-azaindene] displayed an EC50 of 10000 to 40000 nM.

As for `Cc1c(CC(N)CC2(F)CC2)oc2c(NCc3cccs3)cc(Cl)nc12` (centres unmarked) [Compound 67, 2-[2-amino-3-(1-fluorocyclopropyl)propyl]-5-chloro-3-methyl-7-thenylamino-1-oxa-4-azaindene], the EC50 lay within 101 to 500 nM.

`[2H]C([2H])(OC)[C@H](N)Cc1oc2c(NCc3cccs3)cc(Cl)nc2c1C#C` [Compound 300, 2-[(R)-2-amino-3-methoxy(3,3- ^2H2)propyl]-5-chloro-3-ethynyl-7-thenylamino-1-oxa-4-azaindene] yielded an EC50 of 0.01 to 100 nM.

Turning to `N[C@@H](CCOC(F)(F)F)Cc1oc2c(NCc3cccs3)cc(Cl)nc2c1Br` [Compound 146, 2-[(S)-2-amino-4-trifluoromethoxybutyl]-3-bromo-5-chloro-7-thenylamino-1-oxa-4-azaindene], the EC50 was 0.01 to 100 nM.

In the case of `C[C@H](N)Cc1oc2c(NCc3ccncc3F)cc(Cl)nc2c1Br` [Compound 342, 2-[(S)-2-aminopropyl]-3-bromo-5-chloro-7-{[(3-fluoro-4-pyridyl)methyl]amino}-1-oxa-4-azaindene], the EC50 lay within 101 to 500 nM.

For the compound `Clc1cc(NCc2ccncc2)c2occ(Br)c2n1` [Compound 280, [(4-pyridyl)methyl](3-bromo-5-chloro-1-oxa-4-aza-7-indenyl)amine], the EC50 is 10000 to 40000 nM.

`[2H]C([2H])(OC)[C@H](N)Cc1oc2c(NCc3cccs3)cc(Cl)nc2c1Br` [Compound 296, 2-[(R)-2-amino-3-methoxy(3,3- ^2H2)propyl]-3-bromo-5-chloro-7-thenylamino-1-oxa-4-azaindene] had an EC50 of 0.01 to 100 nM.

`[2H]C([2H])(F)[C@H](N)Cc1oc2c(NCc3cccs3)cc(Cl)nc2c1Br` [Compound 299, 2-[(R)-2-amino-3-fluoro(3,3-^2H2)propyl]-3-bromo-5-chloro-7-thenylamino-1-oxa-4-azaindene]: the EC50 fell in the range of 0.01 to 100 nM.

Regarding `[2H]C([2H])([2H])[C@H](N)Cc1oc2c(NCc3cccs3)cc(Cl)nc2c1C#C` [Compound 270, 2-[(S)-2-amino(3,3,3-^2H3)propyl]-5-chloro-3-ethynyl-7-thenylamino-1-oxa-4-azaindene], the EC50 was 0.01 to 100 nM.

On to `[2H]C([2H])([2H])OC[C@]([2H])(N)Cc1oc2c(NCc3cccs3)cc(Cl)nc2c1C#C` [Compound 286, 2-[(R)-2-amino-3-(^2H3)methoxy(2-2H)propyl]-5-chloro-3-ethynyl-7-thenylamino-1-oxa-4-azaindene], for which the EC50 was in the range of 0.01 to 100 nM.

On to `N#CC[C@H](N)Cc1oc2c(NCc3ccco3)cc(Cl)nc2c1Br` [Compound 235, (S)-3-amino-4-[3-bromo-5-chloro-7-(furfurylamino)-1-oxa-4-aza-2-indenyl]butyronitrile], for which the EC50 was in the range of 501 to 5000 nM.

In the case of `[2H][C@](N)(COC)Cc1oc2c(NCc3cccs3)cc(Cl)nc2c1Cl` [Compound 283, 2-[(R)-2-amino-3-methoxy(2-^2H)propyl]-3,5-dichloro-7-thenylamino-1-oxa-4-azaindene], the EC50 was 0.01 to 100 nM.

With `[2H]C([2H])([2H])OC[C@H](N)Cc1oc2c(NCc3ccco3)cc(Cl)nc2c1Cl` [Compound 265, 2-[(R)-2-amino-3-(^2H3)methoxypropyl]-3,5-dichloro-7-(furfurylamino)-1-oxa-4-azaindene], the EC50 lay in the range of 0.01 to 100 nM.

For the compound `[2H]C([2H])([2H])OCC[C@H](N)Cc1oc2c(NCc3cccs3)cc(Cl)nc2c1Br` [Compound 267, 2-[(S)-2-amino-4-(^2H3)methoxybutyl]-3-bromo-5-chloro-7-thenylamino-1-oxa-4-azaindene], the EC50 lay in the range of 101 to 500 nM.

`CC(O)c1oc2c(NCc3cccs3)cc(Cl)nc2c1Br` (centres unmarked) [Compound 355, 1-(3-bromo-5-chloro-7-((thiophen-2-ylmethyl)amino)furo[3,2-b]pyridin-2-yl)ethan-1-ol] showed an EC50 of 5000 to 10000 nM.

For `[2H]C([2H])(c1oc2c(NCc3cccs3)cc(Cl)nc2c1C#C)[C@@H](N)COC` [Compound 330, 2-[(R)-2-amino-3-methoxy(1,1- ^2H2)propyl]-5-chloro-3-ethynyl-7-thenylamino-1-oxa-4-azaindene], the EC50 fell in the range of 0.01 to 100 nM.

Compound `N[C@H](Cc1oc2c(NCc3cccs3)cc(Cl)nc2c1Br)CC1(F)CC1` [Compound 87, 2-[(R)-2-amino-3-(1-fluorocyclopropyl)propyl]-3-bromo-5-chloro-7-thenylamino-1-oxa-4-azaindene] showed an EC50 of 101 to 500 nM.

The compound `[2H]C([2H])(c1oc2c(NCc3cccs3)cc(Cl)nc2c1Br)[C@H](C)N` [Compound 292, 2-[(S)-2-amino(1,1-^2H2)propyl]-3-bromo-5-chloro-7-thenylamino-1-oxa-4-azaindene] gave an EC50 of 0.01 to 100 nM.

Take `Cc1c(CC(N)CC2(F)COC2)oc2c(NCc3cccs3)cc(Cl)nc12` (centres unmarked) [Compound 73, 2-[2-amino-3-(3-fluoro-3-oxetanyl)propyl]-5-chloro-3-methyl-7-thenylamino-1-oxa-4-azaindene]: the EC50 lay within 10000 to 40000 nM.

Compound `[2H]C([2H])(OC(F)F)[C@H](N)Cc1oc2c(NCc3cccs3)cc(Cl)nc2c1Br` [Compound 298, 2-[(R)-2-amino-3-difluoromethoxy(3,3- ^2H2)propyl]-3-bromo-5-chloro-7-thenylamino-1-oxa-4-azaindene] registered an EC50 of 0.01 to 100 nM.

Consider `Cc1c(C[C@H](N)CC2(F)CC2)oc2c(NCc3cccs3)cc(Cl)nc12` [Compound 69, 2-[(S)-2-amino-3-(1-fluorocyclopropyl)propyl]-5-chloro-3-methyl-7-thenylamino-1-oxa-4-azaindene], for which the EC50 lay within 0.01 to 100 nM.

Consider `[2H]C([2H])([2H])[C@H](N)Cc1oc2c(NCc3cccs3)cc(Cl)nc2c1Br` [Compound 231, 2-[(S)-2-amino(3,3,3-2H3)propyl]-3-bromo-5-chloro-7-thenylamino-1-oxa-4-azaindene], for which the EC50 was in the range of 0.01 to 100 nM.

On to `[2H]C([2H])([2H])OC[C@]([2H])(N)Cc1oc2c(NCc3cccs3)cc(Cl)nc2c1Cl` [Compound 282, 2-[(R)-2-amino-3-(^2H3)methoxy(2-2H)propyl]-3,5-dichloro-7-thenylamino-1-oxa-4-azaindene], for which the EC50 fell in the range of 0.01 to 100 nM.

In turn, `[2H]C([2H])([2H])OC[C@H](N)Cc1oc2c(NCc3cccs3)cc(Cl)nc2c1Cl` [Compound 264, 2-[(R)-2-amino-3-(^2H3)methoxypropyl]-3,5-dichloro-7-thenylamino-1-oxa-4-azaindene] had an EC50 of 0.01 to 100 nM.

With `[2H]C([2H])([2H])OC([2H])([2H])[C@H](N)Cc1oc2c(NCc3cccs3)cc(Cl)nc2c1C#C` [Compound 301, 2-[(R)-2-amino-3-(^2H3)methoxy(3,3- ^2H2)propyl]-5-chloro-3-ethynyl-7-thenylamino-1-oxa-4-azaindene], the EC50 lay within 0.01 to 100 nM.

Turning to `C#Cc1c(C[C@@H](N)CC2(O)CC2)oc2c(NCc3cccs3)cc(Cl)nc12` [Compound 281, 1-[(2S)-2-amino-3-{5-chloro-3-ethynyl-7-[(thiophen-2-ylmethyl)amino]furo[3,2-b]pyridin-2-yl}propyl]cyclopropan-1-ol], the EC50 was 501 to 5000 nM.

For the compound `N[C@H](Cc1oc2c(NCc3cccs3)cc(Cl)nc2c1Br)C[C@H]1CC1(F)F` [Compound 184, 2-{(S)-3-[(S)-2,2-difluorocyclopropyl]-2-aminopropyl}-3-bromo-5-chloro-7-thenylamino-1-oxa-4-azaindene], the EC50 was 101 to 500 nM.

As for `N[C@@H](COCC(F)F)Cc1oc2c(NCc3cccs3)cc(Cl)nc2c1Br` [Compound 182, 2-[(R)-2-amino-3-(2,2-difluoroethoxy)propyl]-3-bromo-5-chloro-7-thenylamino-1-oxa-4-azaindene], the EC50 is 0.01 to 100 nM.

`[2H][C@@](C)(N)Cc1oc2c(NCc3cccs3)cc(Cl)nc2c1C#C` [Compound 268, 2-[(S)-2-amino(2-^2H)propyl]-5-chloro-3-ethynyl-7-thenylamino-1-oxa-4-azaindene] returned an EC50 of 0.01 to 100 nM.

`C#Cc1c(C[C@@H](N)COC2CC2)oc2c(NCc3cccs3)cc(Cl)nc12` [Compound 244, 2-[(R)-2-amino-3-cyclopropoxypropyl]-5-chloro-3-ethynyl-7-thenylamino-1-oxa-4-azaindene] showed an EC50 of 0.01 to 100 nM.

With `[2H]C([2H])(c1oc2c(NCc3cccs3)cc(Cl)nc2c1Br)[C@@H](N)CF` [Compound 305, 2-[(R)-2-amino-3-fluoro(1,1-^2H2)propyl]-3-bromo-5-chloro-7-thenylamino-1-oxa-4-azaindene], the EC50 lay within 0.01 to 100 nM.

Compound `[2H]C([2H])([2H])OCC[C@H](N)Cc1oc2c(NCc3cccs3)cc(Cl)nc2c1Cl` [Compound 273, 2-[(S)-2-amino-4-(^2H3)methoxybutyl]-3,5-dichloro-7-thenylamino-1-oxa-4-azaindene] gave an EC50 of 101 to 500 nM.

What is called EC50 is the concentration giving half of the maximal effect. Low values mean a more potent agent, high ones a less potent agent.
